# Measured values: patent US20220213070A1, “COMPOUNDS INHIBITING TDG ACTIVITY” (EPITAS BIOSCIENCES (SHANGHAI) CO., LTD., priority 2019, published 2022)
# Tests used:
# TDG [1] = target: T1, TDG (Homo sapiens, UniProt Q13569); experiment: TDG inhibitory activity of compounds in cells (caC-cmv-firefly luciferase reporter, HEK 293T TDG KO cells transfected with pCDNA4-TDG); type: cell-based; details: read-out: Inhibition rate on TDG activity
# Method in brief: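 TDG-knockout HEK 293T cells co-transfected with an in vitro Tet1-oxidised, 5caC-modified CMV-firefly reporter, a Renilla control and a TDG (or empty myc) plasmid, then treated with compounds for 72 h at 37°C. Firefly/Renilla ratio gives relative TDG activity inhibition, with activity bins set at 10 μM.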
# TDG [2] = target: T1, TDG; experiment: Inhibition of TDG mismatch repair activity (fluorescent G·U double-stranded DNA probe T1-T2); type: biochemical; details: TDG 100 nM/L, preincubated with compound 37° C. 30 minutes; probe 30 nM; read-out: Inhibitory activity on TDG mismatch repair IC50
# Method in brief: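 TDG (100 nM/L) preincubated with compound 30 min at 37 °C in 20 mM HEPES pH7.5, 100 mM NaCl, 0.2 mM EDTA, 2.5 mM MgCl2, then 30 nM FAM/biotin G·U probe for 30 min at 25 °C. After streptavidin bead capture and 200 mM NaOH, supernatant fluorescence read at 485/520 nm; IC50 determined.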
# [3] = tested on: Lung cancer cell line Calu-1; experiment: Inhibition of the growth of Calu-1 cells (CellTiter-Glo, 72 hours); type: cell-based; details: Homo sapiens, 72 hours of culturing, read-out: Inhibitory activity on alu-1 cell growth IC50
# Method in brief: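 Calu-1 cells in McCoy's 5A with 10% FBS, seeded at 500 cells/well and dosed the next day at 0.1% DMSO final. Viability was read by CellTiter-Glo 2.0 luminescence after 72 h at 37° C. Activity class: ++ for IC50 ≤5 μM, + for IC50 >5 μM.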
# T1 sequence (Q13569 whole entry): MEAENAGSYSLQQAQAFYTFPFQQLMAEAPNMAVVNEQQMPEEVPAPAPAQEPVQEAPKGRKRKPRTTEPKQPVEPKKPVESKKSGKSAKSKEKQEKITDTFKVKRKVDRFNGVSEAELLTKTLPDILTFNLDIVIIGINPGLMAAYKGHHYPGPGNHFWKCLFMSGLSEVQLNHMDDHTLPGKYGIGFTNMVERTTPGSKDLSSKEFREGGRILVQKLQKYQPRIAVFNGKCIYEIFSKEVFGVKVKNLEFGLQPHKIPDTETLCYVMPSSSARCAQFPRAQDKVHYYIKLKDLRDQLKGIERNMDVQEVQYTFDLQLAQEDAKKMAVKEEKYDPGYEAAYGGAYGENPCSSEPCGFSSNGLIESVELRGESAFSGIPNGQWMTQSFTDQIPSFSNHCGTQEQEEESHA
SMILES,inhibition at 10 µM (TDG [1]) [%],IC50 (TDG [2]) [µM],IC50 [3] [µM]
"O=C(CCN1CCC(c2ccc(F)c(O)c2)C1)c1ccc2c(c1)OCCO2 (stereo not drawn) [Compound 52, 1-(2,3-dihydrobenzo[b][1,4]dioxin-6-yl)-3-(3-(4-fluoro-3-hydroxyphenyl)pyrrolidine-1-yl)propan-1-one]",< 25,≤ 5,≤ 5
"O=C(CCN1CCc2ccccc2C(O)(c2ccc(F)cc2)C1)c1ccc2c(c1)OCCO2 (stereo not drawn) [Compound 53, 1-(2,3-dihydrobenzo[b][1,4]dioxin-6-yl)-3-(1-(4-fluorophenyl)-1-hydroxy-1,2,4,5-tetrahydro-3H-benzo[d]azepine-3-yl)propan-1-one]",< 25,≤ 5,≤ 5
"O=C(CCN1CCc2ccccc2C(O)(c2ccc(F)cc2)C1)c1ccc2c(c1)C(=O)CCO2 (stereo not drawn) [Compound 54, 6-(3-(1-(4-fluorophenyl)-1-hydroxy-1,2,4,5-tetrahydro-3H-benzo[d]azepine-3-yl)propionyl)chroman-4-one]",< 25,≤ 5,≤ 5
